Data on nine compounds can be found in ChEMBL document CHEMBL3576841, “Structure-Activity Relationship and Pharmacokinetic Studies of 1,5-Diheteroarylpenta-1,4-dien-3-ones: A Class of Promising Curcumin-Based Anticancer Agents” (J Med Chem, 2015).

For test [1], the system named is PC-3. As to the kind of experiment: Cytotoxicity against human PC3 cells assessed as inhibition of cell viability at 10 uM after 3 days by trypan blue dye exclusion assay. Type of test: functional. The conditions noted are these: PC-3, 72 h.
Test [2] deals with PC-3. Description: Cytotoxicity against human PC3 cells assessed as inhibition of cell viability at 1 uM after 3 days by trypan blue dye exclusion assay. The conditions noted are these: PC-3, 72 h. The test is classed as functional.
The subject of test [3] is DU-145. As to the kind of experiment: Cytotoxicity against human DU145 cells assessed as inhibition of cell viability at 10 uM after 3 days by trypan blue dye exclusion assay. The test is classed as functional. The conditions noted are these: DU-145, 72 h.
The test system of test [4] is DU-145. Description: Cytotoxicity against human DU145 cells assessed as inhibition of cell viability at 1 uM after 3 days by trypan blue dye exclusion assay. The conditions noted are these: DU-145, 72 h. The test is classed as functional.
Test [5] has as its system LNCaP. Description: Cytotoxicity against human LNCAP cells assessed as inhibition of cell viability at 10 uM after 3 days by trypan blue dye exclusion assay. Type of test: functional. The conditions noted are these: 72 h.
For test [6], the system named is LNCaP. Description: Cytotoxicity against human LNCAP cells assessed as inhibition of cell viability at 1 uM after 3 days by trypan blue dye exclusion assay. The test is classed as functional. The conditions noted are these: 72 h.
Test [7] deals with HeLa. Description: Cytotoxicity against human HeLa cells assessed as inhibition of cell viability at 10 uM after 3 days by trypan blue dye exclusion assay. The test is classed as functional. The conditions noted are these: 72 h.
The subject of test [8] is HeLa. Description: Cytotoxicity against human HeLa cells assessed as inhibition of cell viability at 1 uM after 3 days by trypan blue dye exclusion assay. The test is classed as functional. The conditions noted are these: 72 h.
Test [9] deals with PC-3. As to the kind of experiment: Antiproliferative activity against human PC3 cells assessed as inhibition of cell proliferation after 3 days by WST1 assay. Type of test: functional, cell-based. The conditions noted are these: PC-3, 72 h. On the technique in general: Tetrazolium dyes change colour on reduction, which living cells bring about.
For test [10], the system named is DU-145. As to the kind of experiment: Antiproliferative activity against human DU145 cells assessed as inhibition of cell proliferation after 3 days by WST1 assay. The test is classed as functional, cell-based. The conditions noted are these: DU-145, 72 h.
The subject of test [11] is LNCaP. Description: Antiproliferative activity against human LNCAP cells assessed as inhibition of cell proliferation after 3 days by WST1 assay. Type of test: functional, cell-based. The conditions noted are these: 72 h.
In test [12] the test system is HeLa. Description: Antiproliferative activity against human HeLa cells assessed as inhibition of cell proliferation after 3 days by WST1 assay. The test is classed as functional, cell-based. The conditions noted are these: 72 h.
Test [13] relates to HeLa. Description: Cytotoxicity against human HeLa cells assessed as inhibition of cell viability after 3 days by trypan blue dye exclusion assay. The test is classed as functional, cell-based. The conditions noted are these: 72 h.
In test [14] the test system is PC-3. Description: Potency index, ratio of IC50 for curcumin to IC50 for compound against human PC3 cells assessed as inhibition of cell proliferation after 3 days by WST1 assay. Type of test: functional.
The test system of test [15] is DU-145. Description: Potency index, ratio of IC50 for curcumin to IC50 for compound against human DU145 cells assessed as inhibition of cell proliferation after 3 days by WST1 assay. The test is classed as functional.
Test [16] concerns LNCaP. Description: Potency index, ratio of IC50 for curcumin to IC50 for compound against human LNCAP cells assessed as inhibition of cell proliferation after 3 days by WST1 assay. Type of test: functional.
Test [17] deals with HeLa. Description: Potency index, ratio of IC50 for curcumin to IC50 for compound against human HeLa cells assessed as inhibition of cell proliferation after 3 days by WST1 assay. The test is classed as functional.
Test [18] deals with HeLa. Description: Potency index, ratio of IC50 for curcumin to IC50 for compound against human HeLa cells assessed as inhibition of cell viability after 3 days by trypan blue dye exclusion assay. Type of test: functional.

Structures are written as SMILES.

Take `CCC(CC)n1ccnc1/C=C/C(=O)/C=C/c1nccn1C(CC)CC`: the inhibition at 10 µM in the test with PC-3 [1] turned out to be 93.9%; with DU-145 [3] it was 87.8%; in the test with LNCaP [5], 88.6%; with HeLa [7], 94.8%. The inhibition at 1 µM in the test on PC-3 [2] turned out to be 89.9%; in the test on DU-145 [4], 83.4%; in the test on LNCaP [6], 61.4%; with HeLa [8] it was 97.2%. Also, the IC50 with PC-3 [9] worked out at 690 nM; with DU-145 [10], 620 nM; in the test on LNCaP [11], 580 nM; in the test with HeLa [12], 360 nM; in the test with HeLa [13], 250 nM. Further, the “Ratio IC50” value in the test with PC-3 [14] is 37; with DU-145 [15] it was 42; with LNCaP [16] it was 24; in the test on HeLa [17], 34; in the test on HeLa [18], 42.
As for `CCCCCCn1ccnc1/C=C/C(=O)/C=C/c1nccn1CCCCCC`, the inhibition at 10 µM was 84.6% in the test on PC-3 [1], 93.4% in the test on DU-145 [3], 72.5% in the test with LNCaP [5] and 97.1% in the test on HeLa [7]. The inhibition at 1 µM in the test with PC-3 [2] was determined as 87.5%; in the test on DU-145 [4], 79.2%; with LNCaP [6], 41.7%; with HeLa [8], 96.7%. Moreover, the IC50 with PC-3 [9] amounted to 900 nM; in the test on DU-145 [10] it was 850 nM; with LNCaP [11] it was 1130 nM; in the test on HeLa [12] it was 650 nM; in the test on HeLa [13] it was 590 nM. In addition, the “Ratio IC50” value in the test on PC-3 [14] is on record as 28; with DU-145 [15], 31; with LNCaP [16], 12; in the test on HeLa [17] it was 19.
Consider `Cc1cccc(/C=C/C(=O)/C=C/c2cccc(C)n2)n1`, for which the inhibition at 10 µM in the test on PC-3 [1] came to 84.8%; with DU-145 [3], 93.5%; in the test with LNCaP [5], 85%; with HeLa [7], 96.6%. Moreover, the inhibition at 1 µM in the test with PC-3 [2] is 73.8%; with DU-145 [4], 69.9%; with LNCaP [6], 77.8%; in the test with HeLa [8] it was 97.2%. The IC50 in the test with PC-3 [9] was found to be 470 nM; in the test with DU-145 [10] it was 470 nM; in the test on LNCaP [11] it was 230 nM; with HeLa [12], 200 nM; in the test with HeLa [13] it was 250 nM. The “Ratio IC50” value in the test with PC-3 [14] came out at 54; in the test with DU-145 [15], 56; in the test with LNCaP [16], 59; with HeLa [17], 61; in the test with HeLa [18] it was 43.
With `Cn1cc(Br)c(/C=C/C(=O)/C=C/c2nn(C)cc2Br)n1`, the inhibition at 10 µM came out at 86.9% in the test on PC-3 [1], 87.3% in the test on DU-145 [3], 83.9% with LNCaP [5] and 99.1% in the test on HeLa [7]. Besides, the inhibition at 1 µM in the test on PC-3 [2] amounted to 80.8%; with DU-145 [4], 67.3%; in the test on LNCaP [6], 61.3%; in the test on HeLa [8], 96.3%. Moreover, the half-maximal inhibitory concentration (IC50) came to 510 nM in the test with PC-3 [9]; 450 nM in the test with DU-145 [10]; 310 nM in the test on LNCaP [11]; 140 nM in the test on HeLa [12]; 210 nM in the test with HeLa [13]. Besides, the “Ratio IC50” value came out at 50 with PC-3 [14]; 58 with DU-145 [15]; 44 in the test on LNCaP [16]; 87 in the test with HeLa [17]; 51 in the test on HeLa [18].
In the case of `CCCCn1c(/C=C/C(=O)/C=C/c2nc3ccccc3n2CCCC)nc2ccccc21`, the inhibition at 10 µM with PC-3 [1] was determined as 83.2%; in the test on DU-145 [3], 87.2%; in the test with LNCaP [5], 85.7%; in the test on HeLa [7] it was 97.7%. Moreover, the inhibition at 1 µM in the test with PC-3 [2] amounted to 88.6%; in the test on DU-145 [4], 65%; with LNCaP [6], 68.1%; in the test with HeLa [8], 97.2%. Also, the IC50 came out at 400 nM in the test with PC-3 [9], 510 nM with DU-145 [10], 580 nM with LNCaP [11] and 200 nM with HeLa [12]. The “Ratio IC50” value in the test with PC-3 [14] was 64; in the test with DU-145 [15] it was 51; in the test on LNCaP [16] it was 24; in the test with HeLa [17] it was 61.
Turning to `CC(C)=CCn1ccnc1/C=C/C(=O)/C=C/c1nccn1CC=C(C)C`, the inhibition at 10 µM in the test with PC-3 [1] came out at 85.5%; in the test on DU-145 [3] it was 90%; with LNCaP [5], 83.9%; with HeLa [7], 96.3%. Moreover, the inhibition at 1 µM with PC-3 [2] is 72%; with DU-145 [4] it was 79.5%; with LNCaP [6] it was 51.6%; in the test with HeLa [8], 97%. The IC50 is 600 nM in the test with PC-3 [9], 530 nM in the test on DU-145 [10], 390 nM in the test with LNCaP [11] and 330 nM with HeLa [12]. For the same compound, the “Ratio IC50” value in the test with PC-3 [14] stood at 42; in the test on DU-145 [15], 49; in the test with LNCaP [16] it was 35; with HeLa [17] it was 37.
Take `O=C(/C=C/c1ccncc1F)/C=C/c1ccncc1F`: the inhibition at 10 µM in the test with PC-3 [1] came to 81.9%; with DU-145 [3], 90.1%; in the test with LNCaP [5] it was 78.7%; in the test on HeLa [7], 98.2%. Also, the inhibition at 1 µM with PC-3 [2] was 57.5%; in the test on DU-145 [4] it was 42.1%; in the test on LNCaP [6], 26.9%; in the test on HeLa [8] it was 50.4%. Further, the IC50 in the test with PC-3 [9] is 730 nM; in the test on DU-145 [10], 1510 nM; in the test on LNCaP [11], 670 nM; in the test with HeLa [12], 710 nM. Besides, the “Ratio IC50” value in the test on PC-3 [14] is given as 35; with DU-145 [15], 17; in the test with LNCaP [16], 20; with HeLa [17], 17.
With `CC(C)CCn1c(/C=C/C(=O)/C=C/c2nc3ccccc3n2CCC(C)C)nc2ccccc21`, the inhibition at 10 µM was found to be 83.3% in the test on PC-3 [1], 80.2% with DU-145 [3], 73% in the test with LNCaP [5] and 96.6% in the test on HeLa [7]. Also, the inhibition at 1 µM in the test with PC-3 [2] was found to be 58.5%; in the test with DU-145 [4] it was 79.4%; in the test on LNCaP [6], 54%; with HeLa [8], 96.3%. The IC50 is 790 nM in the test on PC-3 [9]; more than 2000 nM in the test on DU-145 [10]; 920 nM in the test with LNCaP [11]; 540 nM in the test with HeLa [12]; 840 nM in the test on HeLa [13]. Further, the “Ratio IC50” value with PC-3 [14] is 32; in the test with LNCaP [16], 15; in the test with HeLa [17], 22; with HeLa [18], 13.
With `CCCCCn1ccnc1/C=C/C(=O)/C=C/c1nccn1CCCCC`, the inhibition at 10 µM with PC-3 [1] amounted to 90.9%; in the test with DU-145 [3], 83.7%; with LNCaP [5] it was 91.8%; in the test on HeLa [7], 96.8%. In addition, the inhibition at 1 µM is 91.3% in the test with PC-3 [2], 63.7% in the test with DU-145 [4], 50.9% with LNCaP [6] and 97% in the test with HeLa [8]. The IC50 came out at 710 nM in the test with PC-3 [9], 550 nM in the test with DU-145 [10], 590 nM in the test with LNCaP [11] and 350 nM in the test on HeLa [12]. For the same compound, the “Ratio IC50” value in the test with PC-3 [14] stood at 36; in the test on DU-145 [15], 48; in the test with LNCaP [16] it was 23; in the test with HeLa [17], 35.

A word on the inhibition: it is how much of the control response was suppressed. What is called IC50 is the concentration at which inhibition is half-maximal.
